Data on 15 compounds can be found in patent US20150291625A1 (PFIZER INC., priority 2012, published 2015).

“And” between values parts separate entries of the source, which are not always exact repeats. Equal values may be shown once. Where a name gives a salt, the structure may show the parent alone.

For assay [1], the target named is T1, D1 (Homo sapiens, UniProt P21728). Briefly: D1 cAMP HTRF assay (HEK293T/hD1#1 stable cell line). The class given is cell-based. Further details: expressed in transfected cells. From the text:
This assay was used to determine the ability of a test compound to agonize (including partially agonize) D1. A Mab anti-cAMP labeled Cryptate visualizes the tracer. […] The signal, therefore, is inversely proportional to the concentration of cAMP in the sample.
The cAMP Dynamic kit was obtained from Cisbio International (Cisbio 62AM4PEJ). Multidrop Combi (Thermo Scientific) was used for assay additions. Envision (PerkinElmer) reader was used to read HTRF.
A HEK293T/hD1#1 stable cell line was constructed internally (Pfizer Ann Arbor). […] One mL aliquots of the cells were made in Cryo-vials and frozen at −80° C. for future use in the D1 HTRF assay.
Frozen cells were quickly thawed, re-suspended in 50 mL warm media and allowed to sit for 5 min prior to centrifugation (1000 rpm) at room temperature. Media was removed and cell pellet was re-suspended in PBS/0.5 μM IBMX generating 2e5 cells/mL. […] Cells and compounds were incubated at room temperature for 30 min. Working solutions of cAMP-D2 and anti-cAMP-cryptate were prepared according to Cisbio instructions. Using Multidrop, 5 μL cAMP-D2 working solution was added to the assay plate containing the test compound and cells. Using Multidrop, 5 μL anti-cAMP-cryptate working solutions was added to assay plate containing test compound, cells and cAMP-D2. Assay plate was incubated for 1 hour at room temperature. Assay plate was read on Envision plate reader using Cisbio recommended settings. A cAMP standard curve was generated using cAMP stock solution provided in the Cisbio kit.
Data analysis was done using computer software. Percent effects were calculated from the compound controls. Ratio EC50 was determined using the raw ratio data from the Envision reader. The cAMP standard curve was used in an analysis program to determine cAMP concentrations from raw ratio data. cAMP EC50 was determined using the calculated cAMP data.
On the technique in general: In TR-FRET formats the signal depends on donor and acceptor labels being close together.

Assay [2] concerns the target T1, D1. Kind of assay: Human D1 receptor binding assay ([3H]-SCH23390 competition). Particulars: Human D1 Receptor Binding, Ki (nM), Geometric mean of 2-4 determinations, a: >=5 determinations, d: single determination.

T1 sequence (P21728 whole entry): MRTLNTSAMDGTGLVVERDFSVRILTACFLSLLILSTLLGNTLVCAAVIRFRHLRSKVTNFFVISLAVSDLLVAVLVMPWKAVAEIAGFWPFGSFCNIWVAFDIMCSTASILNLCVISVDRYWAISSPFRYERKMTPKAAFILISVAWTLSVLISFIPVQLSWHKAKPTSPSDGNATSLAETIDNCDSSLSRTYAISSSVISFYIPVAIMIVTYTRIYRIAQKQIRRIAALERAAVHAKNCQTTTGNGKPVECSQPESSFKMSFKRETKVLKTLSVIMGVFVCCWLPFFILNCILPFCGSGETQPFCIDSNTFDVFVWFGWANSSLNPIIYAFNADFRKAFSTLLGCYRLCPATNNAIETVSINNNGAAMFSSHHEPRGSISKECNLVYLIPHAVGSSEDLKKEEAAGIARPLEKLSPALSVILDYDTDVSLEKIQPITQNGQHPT

The term EC50 denotes the concentration that produces a half-maximal response. A higher EC50 goes with a less potent agent. Usually Ki stands for a measure of affinity in units of concentration, obtained from inhibition or displacement. Low values mean a stronger hold on the target, high ones a looser hold on the target. `COc1cnnc(C)c1-c1ccc(Oc2nccc3occc23)cc1C` (single isomer, unassigned) [Example 135, 4-[4-(5-methoxy-3-methylpyridazin-4-yl)-3-methylphenoxy]furo[3,2-c]pyridine]: in assay [1], the EC50 was 276 nM. Further, in assay [2], the Ki came out at 38.7 nM.

In assay [1], `Cc1nccnc1-c1ccc(Oc2nccc3occc23)cc1Cl` [Example 196, 4-[3-chloro-4-(3-methylpyrazin-2-yl)phenoxy]furo[3,2-c]pyridine] displayed an EC50 of 1400 nM. Besides, the Ki in assay [2] was found to be 91.7 nM.

In assay [1], `O=C(COc1cc(Oc2nccc3occc23)ccc1-c1cccc2nccn12)NC1CC1` [Example 43, N-cyclopropyl-2-[5-(furo[3,2-c]pyridin-4-yloxy)-2-(imidazo[1,2-a]pyridin-5-yl)phenoxy]acetamide, trifluoroacetate salt] yielded an EC50 of 605 nM. The Ki in assay [2] was 211 nM.

For `COCCOc1cc(Oc2nccc3occc23)ccc1-c1c(C)ncnc1C` [Example 190, 4-[4-(4,6-dimethylpyrimidin-5-yl)-3-(2-methoxyethoxy)phenoxy]furo[3,2-c]pyridine], the response in assay [1] was half-maximal at 2650 nM (EC50). In assay [2], the Ki was 79.3 nM.

As to `CCOc1ncnc(C)c1-c1ccc(Oc2nccc3occc23)cc1F` [Example 192, 4-[4-(4-ethoxy-6-methylpyrimidin-5-yl)-3-fluorophenoxy]furo[3,2-c]pyridine], in assay [1], the EC50 is 737 nM and 1500 nM. Besides, the Ki in assay [2] is 86.4 nM.

`Clc1cc(Oc2nccc3occc23)ccc1-c1cncc2nccn12` [Example 170, 5-[2-chloro-4-(furo[3,2-c]pyridin-4-yloxy)phenyl]imidazo[1,2-a]pyrazine] registered an EC50 in assay [1] of 657 nM. The same compound displayed a Ki in assay [2] of 30 nM.

Turning to `Cc1ncnc(C)c1-c1cc(F)c(Oc2nccc3occc23)c(F)c1` [Example 128, 4-[4-(4,6-dimethylpyrimidin-5-yl)-2,6-difluorophenoxy]furo[3,2-c]pyridine], it took 5480 nM to reach a half-maximal effect in assay [1] (EC50). Further, the affinity in assay [2], expressed as Ki, was 379 nM.

The compound `Cc1cc(Oc2nccc3occc23)ccc1-c1nc(N)cnc1C` [Example 53, 6-[4-(furo[3,2-c]pyridin-4-yloxy)-2-methylphenyl]-5-methylpyrazin-2-amine, trifluoroacetate salt] registered an EC50 in assay [1] of 953 nM. In assay [2], the Ki is 173 nM.

On to `Cc1cc(Oc2nccc3occc23)ccc1-c1cncnc1C` [Example 58, 4-[3-methyl-4-(4-methylpyrimidin-5-yl)phenoxy]furo[3,2-c]pyridine], for which, in assay [1], the EC50 is 900 nM and 1110 nM. Further, the Ki in assay [2] is 160 nM.

With `COc1cc(Oc2nccc3occc23)ccc1-c1c(C)ccnc1C#N` [Example 51, 3-[4-(furo[3,2-c]pyridin-4-yloxy)-2-methoxyphenyl]-4-methylpyridine-2-carbonitrile, trifluoroacetate salt], the EC50 in assay [1] was 799 nM and 1220 nM. Further, the affinity in assay [2] corresponds to a Ki of 61.7 nM.

Take `CCc1cc(Oc2nccc3occc23)ccc1-c1nccnc1C` [Example 62, 4-[3-ethyl-4-(3-methylpyrazin-2-yl)phenoxy]furo[3,2-c]pyridine]: the Ki in assay [2] amounted to 130 nM.

Regarding `Cc1nccnc1-c1ccc(Oc2nccc3occc23)cc1OCc1nc(C2CC2)no1` [Example 67, 4-{3-[(3-cyclopropyl-1,2,4-oxadiazol-5-yl)methoxy]-4-(3-methylpyrazin-2-yl)phenoxy}furo[3,2-c]pyridine], the EC50 in assay [1] came to 809 nM.

As to `Cc1ncccc1-c1ccc(Oc2nccc3occc23)cc1OCC(C)N(C)C` (stereo not shown) [Example 74, 1-[5-(furo[3,2-c]pyridin-4-yloxy)-2-(2-methylpyridin-3-yl)phenoxy]-N,N-dimethylpropan-2-amine, formate salt], the EC50 in assay [1] was found to be 832 nM.

Consider `Cc1cc(Oc2nccc3occc23)ccc1-c1c(C)nnc2nccn12` [Example 123, 4-[4-(furo[3,2-c]pyridin-4-yloxy)-2-methylphenyl]-3-methylimidazo[2,1-c][1,2,4]triazine], for which, in assay [1], the EC50 was found to be 878 nM.

Consider `Cn1nccc1-c1ccc(Oc2nccc3sccc23)cc1` [Example 7, 4-[4-(1-Methyl-1H-pyrazol-5-yl)phenoxy]thieno[3,2-c]pyridine], for which the Ki in assay [2] amounted to 788 nM.
